Measured values published in patent US8633211B2, “Bicyclic organic compounds suitable for the treatment of inflammatory or allergic conditions” (Novartis AG, priority 2007, dated 2014).

target: T1, human S1P4 (Homo sapiens, UniProt O95977); assay: CHO Gα16 S1P4 intracellular Ca2+ (FLIPR) assay; assay type: cell-based; details: relative antagonism of S1P (EC80) induced Ca2+ change, CHO S1P4/Gα16 cells
T1 construct: expressed in transfected cells; host or cells: CHO (Chinese Hamster Ovary) S1P4/Gα16 cell clone
T1 sequence (O95977 1-384): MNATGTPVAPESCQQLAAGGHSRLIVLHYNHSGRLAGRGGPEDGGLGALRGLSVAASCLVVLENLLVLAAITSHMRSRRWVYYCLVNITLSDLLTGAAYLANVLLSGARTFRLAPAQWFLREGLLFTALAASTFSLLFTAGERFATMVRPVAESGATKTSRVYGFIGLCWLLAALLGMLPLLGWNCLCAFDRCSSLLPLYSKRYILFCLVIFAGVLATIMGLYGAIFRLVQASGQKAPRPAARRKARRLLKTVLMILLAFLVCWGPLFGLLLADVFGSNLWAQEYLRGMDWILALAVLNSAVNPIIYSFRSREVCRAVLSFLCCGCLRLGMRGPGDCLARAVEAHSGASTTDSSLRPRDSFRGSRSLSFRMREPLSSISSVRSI
Procedure: The cells are plated in 384 well black plates (10′000 cells per well). […] After washing, the cells are transferred to the FLIPR. […] This allows the determination of the maximal fluorescence (Fmax).

| IC50 | Compound |
| --- | --- |
| 15 nM | COc1cc(OC)c(NC(=O)Cn2c(=O)n(CC(=O)NCCc3ccccc3)c(=O)c3ccccc32)cc1Cl [Example 1-35, 2-{1-[(5-Chloro-2,4-dimethoxy-phenylcarbamoyl)-methyl]-2,4-dioxo-1,4-dihydro-2H-quinazolin-3-yl}-N-phenethyl-acetamide] |
| 880 nM | COc1cc(OC)c(NC(=O)Cn2c(=O)n(CC(=O)OC(C)(C)C)c(=O)c3ccccc32)cc1Cl [Example 1-37, {1-[(5-Chloro-2,4-dimethoxy-phenylcarbamoyl)-methyl]-2,4-dioxo-1,4-dihydro-2H-quinazolin-3-yl}-acetic acid tert butyl ester] |

target: T2, human S1P2 receptor (Homo sapiens, UniProt O95136); assay: GTPγS binding assay (SPA), antagonism of S1P at S1P2; assay type: biochemical; details: GTP-γ-S binding assay, membranes of CHO cells expressing human S1P2, 5 nM S1P
T2 construct: expressed in transfected cells; host or cells: CHO cells (membrane preparation)
Procedure: The ability of compounds to antagonise S1P activity at S1P2 and S1P3 receptors was examined using GTPγS binding assays.
Membranes preparations were generated from CHO cells expressing either the human S1P2 or S1P3 receptors by homogenisation of the cell suspension and centrifugation at 40 000 g for 30 minutes at 4° C. The supernatant was removed, pellet re-suspended in a 10 mM HEPES, 10 mM EDTA buffer and centrifuged as above. The pellet was re-suspended and stored at −80° C. until use.
Scintillation proximity assay (SPA) technology was used for the GTPγS binding assays. Serial dilutions of test compounds were placed in a 96-well optiplate with 5 nM S1P, 1.25 μg membrane, 0.5 mg SPA beads, 0.3 μM GDP and 100 μM sodium orthovanidate, per well. The assay components were incubated for 2 hours to ensure equilibrium was attained. The assay was started by the addition of 300 pM [^35S]GTPγS per well and incubated for 60 minutes prior to centrifugation at 3000 rpm for 3 minutes and reading of a Packard TopCount.
Data were analysed using Activity Base (IDBS, UK) by fitting a four parameter logistic curve to generate IC50 values for each compound.

T2 sequence (O95136 whole entry): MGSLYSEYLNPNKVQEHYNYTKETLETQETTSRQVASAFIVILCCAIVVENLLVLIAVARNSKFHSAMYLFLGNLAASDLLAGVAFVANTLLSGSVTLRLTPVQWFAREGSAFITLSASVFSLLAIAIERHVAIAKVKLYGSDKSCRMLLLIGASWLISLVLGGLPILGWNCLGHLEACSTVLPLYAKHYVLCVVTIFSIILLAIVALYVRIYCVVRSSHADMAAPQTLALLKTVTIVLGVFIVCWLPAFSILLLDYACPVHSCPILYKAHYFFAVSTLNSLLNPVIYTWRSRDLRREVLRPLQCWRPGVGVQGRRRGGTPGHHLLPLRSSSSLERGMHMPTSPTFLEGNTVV

| Compound | Kb |
| --- | --- |
| COc1cc(OC)c(NC(=O)Cn2c(=O)n(CC(=O)O)c(=O)c3ccccc32)cc1Cl [Example 1-1, {1-[(5-Chloro-2,4-dimethoxy-phenylcarbamoyl)-methyl]-2,4-dioxo-1,4-dihydro-2H-quinazolin-3-yl}-acetic acid] | 0.8 nM |
| COc1cc(OC)c(NC(=O)Cn2c(=O)n(CC(=O)NCCc3cccnc3)c(=O)c3ccccc32)cc1Cl [Example 1-13, N-(5-Chloro-2,4-dimethoxy-phenyl)-2-{2,4-dioxo-3-[(2-pyridin-3-yl-ethylcarbamoyl)-methyl]-3,4-dihydro-2H-quinazolin-1-yl}-acetamide] | 1.9 nM |

More lines, now with the values ahead:

| Kb | Compound |
| --- | --- |
| 4.8 nM | CCOc1ccc(C(=O)Cn2c(=O)n(CCCC(=O)NC3CCCC3)c(=O)c3cc(Cl)ccc32)cc1Cl [Compound 3-4, 4-{6-Chloro-1-[2-(3-chloro-4-ethoxy-phenyl)-2-oxo-ethyl]-2,4-dioxo-1,4-dihydro-2H quinazolin-3-yl}-N-cyclopentyl-butyramide] |
| 3.6 nM | COc1cc(OC)c(NC(=O)Cn2c(=O)n(-c3ccc(CC(=O)NCCc4ccccc4)cc3)c(=O)c3ccccc32)cc1Cl [Example 2-1, 2-(4-{1-[(5-Chloro-2,4-dimethoxy-phenylcarbamoyl)-methyl]-2,4-dioxo-1,4-dihydro-2H-quinazolin-3-yl}-phenyl)-N-phenethyl-acetamide] |
